# Experiments:
# UACC-257 = assay: NCI 60 cell panel
# OVCAR-4 = assay: NCI 60 cell panel
# SN12C = assay: NCI 60 cell panel
# SCC25 cells = assay: EdU cell growth assay
# Experimental: (§1) EdU cell growth assay. Click-iT EdU Alexa Fluor high-throughput imaging (HCS) assay for cell proliferation. HCS assays were performed on AT84 mouse squamous carcinoma cell line (ATCC) following the manufacturer's instruction (Molecular Probes, Invitrogen). […] All samples were in triplicate.
# MOLT-4 = assay: NCI 60 cell panel
# SK-MEL-28 = assay: NCI 60 cell panel
# DU-145 = assay: NCI 60 cell panel
# 786-0 = assay: NCI 60 cell panel
# HCC-2998 = assay: NCI 60 cell panel
# [1] = test system: 60 cell panel of human carcinoma cell lines; assay: NCI 60 cell panel, summary in text; format: cell-based
# MDA-MB-231/ATCC = assay: NCI 60 cell panel
# OVCAR-5 = assay: NCI 60 cell panel
# MDA-MB-468 = assay: NCI 60 cell panel
# NCI-H226 = assay: NCI 60 cell panel
# NCI-H522 = assay: NCI 60 cell panel
# HCT-15 = assay: NCI 60 cell panel
# SCC4 cells = assay: EdU cell growth assay
# Experimental: as §1
# IGROVI = assay: NCI 60 cell panel
# UO-31 = assay: NCI 60 cell panel
# NCI-H322M = assay: NCI 60 cell panel
# HCT-116 = assay: NCI 60 cell panel
# SF-295 = assay: NCI 60 cell panel
# SF-268 = assay: NCI 60 cell panel
# COLO 205 = assay: NCI 60 cell panel
# U251 = assay: NCI 60 cell panel
# PC-3 = assay: NCI 60 cell panel
# OVCAR-3 = assay: NCI 60 cell panel
# HOP-62 = assay: NCI 60 cell panel
# TK-10 = assay: NCI 60 cell panel
# UACC-62 = assay: NCI 60 cell panel
structure (smiles),measurement,setting,value
"CCC(CC)(c1ccc(OCC(=O)NO)c(C)c1)c1ccc(OCC(O)C(C)(C)C)c(C)c1 (racemic) [JF-B01, N-Hydroxy-2-(4-(3-(4-(2-hydroxy-3,3-dimethylbutoxy)-3-methylphenyl)pentan-3-yl)-2-methylphenoxy)acetamide]",GI50,"UACC-257; Homo sapiens, UACC-257",3.34 µM
same,CC50,"UACC-257; Homo sapiens, UACC-257, read-out: LC50",38.8 µM
same,TGI,"UACC-257; Melanoma, UACC-257",1.27E-5
same,GI50,"OVCAR-4; Homo sapiens, OVCAR-4",1.88 µM
same,CC50,"OVCAR-4; Homo sapiens, OVCAR-4, read-out: LC50",32 µM
same,TGI,"OVCAR-4; Ovarian Cancer, OVCAR-4",9.44E-6
same,GI50,SN12C; Homo sapiens,3.87 µM
same,CC50,"SN12C; Homo sapiens, read-out: LC50",40.3 µM
same,TGI,SN12C; Renal Cancer,1.59E-5
same,"antiproliferative potency, fold less potent than 1,25D",SCC25 cells,10 fold
same,EdU incorporation at higher concentrations,SCC25 cells; higher concentrations,completely abolished EdU incorporation
same,GI50,"MOLT-4; Homo sapiens, MOLT-4",1.15 µM
same,CC50,"MOLT-4; Homo sapiens, MOLT-4, read-out: LC50",40.9 µM
same,TGI,"MOLT-4; Leukemia, MOLT-4",4.60E-6
same,GI50,"SK-MEL-28; Homo sapiens, SK-MEL-28",4.75 µM
same,CC50,"SK-MEL-28; Homo sapiens, SK-MEL-28, read-out: LC50",42.5 µM
same,TGI,"SK-MEL-28; Melanoma, SK-MEL-28",1.75E-5
same,GI50,"DU-145; Homo sapiens, DU-145",13 µM
same,CC50,"DU-145; Homo sapiens, DU-145, read-out: LC50",50.6 µM
same,TGI,"DU-145; Prostate Cancer, DU-145",2.56E-5
same,GI50,"786-0; Homo sapiens, 786-0",11.3 µM
same,CC50,"786-0; Homo sapiens, 786-0, read-out: LC50",51.3 µM
same,TGI,"786-0; Renal Cancer, 786-0",2.41E-5
same,TGI,"HCC-2998; Colon Cancer, HCC-2998",1.55E-5
same,GI50,"HCC-2998; Homo sapiens, HCC 2998",4.23 µM
same,CC50,"HCC-2998; Homo sapiens, HCC 2998, read-out: LC50",41.2 µM
same,antiproliferative activity,[1]; all cell lines of the panel,antiproliferative activity in all cell lines
same,full growth inhibition,"[1]; melanoma cell lines, 8 out of 9 cell lines",≤ 7 µM
same,TGI,"MDA-MB-231/ATCC; Breast Cancer, MDA-MB-231/ATCC",8.45E-6
same,GI50,"MDA-MB-231/ATCC; Homo sapiens, MDA-MB-231",2.18 µM
same,CC50,"MDA-MB-231/ATCC; Homo sapiens, MDA-MB-231, read-out: LC50",31.6 µM
same,GI50,"OVCAR-5; Homo sapiens, OVCAR-5",12.9 µM
same,CC50,"OVCAR-5; Homo sapiens, OVCAR-5, read-out: LC50",50.6 µM
same,TGI,"OVCAR-5; Ovarian Cancer, OVCAR-5",2.56E-5
same,TGI,"MDA-MB-468; Breast Cancer, MDA-MB-468",3.53E-6
same,GI50,"MDA-MB-468; Homo sapiens, MDA-MB-468",1.57 µM
same,CC50,"MDA-MB-468; Homo sapiens, MDA-MB-468, read-out: LC50",7.92 µM
same,GI50,"NCI-H226; Homo sapiens, NCI-H226",1.98 µM
same,CC50,"NCI-H226; Homo sapiens, NCI-H226, read-out: LC50",33 µM
same,TGI,"NCI-H226; Non-Small Cell Lung Cancer, NCI-H226",1.07E-5
same,GI50,"NCI-H522; Homo sapiens, NCI-H522",0.196 µM
same,CC50,"NCI-H522; Homo sapiens, NCI-H522, read-out: LC50",19.5 µM
same,TGI,"NCI-H522; Non-Small Cell Lung Cancer, NCI-H522",5.18E-7
same,TGI,"HCT-15; Colon Cancer, HCT-15",1.12E-5
same,GI50,"HCT-15; Homo sapiens, HCT-15",1.94 µM
same,CC50,"HCT-15; Homo sapiens, HCT-15, read-out: LC50",33.6 µM
same,"inhibition of proliferation, EdU incorporation","SCC4 cells; 1,25D-resistant SCC4 cells, Fig. 2e, f",completely
same,EdU incorporation at higher concentrations,"SCC4 cells; SCC4 cells, higher concentrations",completely abolished EdU incorporation
same,GI50,IGROVI; Homo sapiens,2.08 µM
same,CC50,"IGROVI; Homo sapiens, read-out: LC50",19.2 µM
same,TGI,"IGROVI; Ovarian Cancer, IGROVI",5.25E-6
same,GI50,"UO-31; Homo sapiens, UO-31",1.92 µM
same,CC50,"UO-31; Homo sapiens, UO-31, read-out: LC50",26.2 µM
same,TGI,"UO-31; Renal Cancer, UO-31",6.95E-6
same,GI50,NCI-H322M; Homo sapiens,2.86 µM
same,CC50,"NCI-H322M; Homo sapiens, read-out: LC50",33 µM
same,TGI,NCI-H322M; Non-Small Cell Lung Cancer,1.08E-5
same,TGI,"HCT-116; Colon Cancer, HCT-116",1.09E-5
same,GI50,"HCT-116; Homo sapiens, HCT-116",2.13 µM
same,CC50,"HCT-116; Homo sapiens, HCT-116, read-out: LC50",33.4 µM
same,TGI,"SF-295; CNS Cancer, SF-295",2.02E-5
same,GI50,"SF-295; Homo sapiens, SF-295",7.61 µM
same,CC50,"SF-295; Homo sapiens, SF-295, read-out: LC50",44.9 µM
same,TGI,"SF-268; CNS Cancer, SF-268",1.06E-5
same,GI50,"SF-268; Homo sapiens, SF-268",2.26 µM
same,CC50,"SF-268; Homo sapiens, SF-268, read-out: LC50",34.6 µM
same,TGI,"COLO 205; Colon Cancer, COLO 205",5.94E-6
same,GI50,"COLO 205; Homo sapiens, COLO 205",2.33 µM
same,CC50,"COLO 205; Homo sapiens, COLO 205, read-out: LC50",20.3 µM
same,TGI,"U251; CNS Cancer, U251",1.23E-5
same,GI50,"U251; Homo sapiens, U-251",2.34 µM
same,CC50,"U251; Homo sapiens, U-251, read-out: LC50",40 µM
same,GI50,"PC-3; Homo sapiens, PC-3",3.04 µM
same,CC50,"PC-3; Homo sapiens, PC-3, read-out: LC50",41.8 µM
same,TGI,"PC-3; Prostate Cancer, PC-3",1.23E-5
same,GI50,"OVCAR-3; Homo sapiens, OVCAR-3",1.73 µM
same,CC50,"OVCAR-3; Homo sapiens, OVCAR-3, read-out: LC50",21.6 µM
same,TGI,"OVCAR-3; Ovarian Cancer, OVCAR-3",5.59E-6
same,GI50,"HOP-62; Homo sapiens, HOP-62",3.69 µM
same,CC50,"HOP-62; Homo sapiens, HOP-62, read-out: LC50",38.3 µM
same,TGI,"HOP-62; Non-Small Cell Lung Cancer, HOP-62",1.47E-5
same,GI50,"TK-10; Homo sapiens, TK-10",2.83 µM
same,CC50,"TK-10; Homo sapiens, TK-10, read-out: LC50",42.8 µM
same,TGI,"TK-10; Renal Cancer, TK-10",1.60E-5
same,GI50,"UACC-62; Homo sapiens, UACC-62",1.68 µM
same,CC50,"UACC-62; Homo sapiens, UACC-62, read-out: LC50",11.5 µM
same,TGI,"UACC-62; Melanoma, UACC-62",4.22E-6
